The record followed here is paper PMC11956017, “Design of Benzyl-triazolopyrimidine-Based NADPH Oxidase Inhibitors Leads to the Discovery of a Potent Dual Covalent NOX2/MAOB Inhibitor” (Journal of Medicinal Chemistry, 2025).

One assay has as its system csNOX5 dehydrogenase. Kind of assay: Intact protein mass spectrometry of csNOX5 dehydrogenase. Type of assay: binding, Cylindrospermum stagnale. As to conditions: intact protein ESI-qTOF-HRMS. How it is done:
Approximately 1 mg mL^-1 protein was incubated with 300 μM FAD and 1 mM 9a at 4 °C for 1 h. A negative control reaction was performed by adding an equal volume of DMSO. Protein was denatured by adding 1% (v/v) formic acid. Chromatographic separation and mass spectrometry analysis were carried out as previously reported.[10] Analyses were carried out by ESI-qTOF-HRMS on an […] qTOF system (Sciex) embedding a Twin Sprayer ESI probe and coupled with an ExcionLC system (Sciex) controlled by SciexOS software v. 3.0.0. The injection volume was 10 μL (10 μg), and chromatographic separation was carried out with a bioZen WidePore C4 column (a 100 mm length, a 2.1 mm diameter, and a 2.6 μm particle size; Phenomenex).

Assay [1] deals with dehydrogenase domain of csNOX5. Kind of assay: NADPH depletion assay on csNOX5 dehydrogenase domain. Type of assay: biochemical, Cylindrospermum stagnale. The note with it: 10 μM inhibitor; 1 μM purified protein, 250 μM NADPH. How it is done:
A series of derivatives were synthesized and tested at 10 μM against the dehydrogenase domain of NOX5 from Cylindrospermum stagnale (C. stagnale, CsNOX5; Figure 2B).
The NADPH depletion assay for IC50 determinations was performed as described[10] with modifications for covalent inhibitors, which require longer incubation times. Briefly, the catalytic activity was measured by monitoring the absorbance at 340 nm with a Cary 100 UV–vis spectrophotometer (Varian). A 1 μM portion of purified protein was added in a final volume of 130 μL of 50 mM HEPES pH 7.5 and supplemented with 300 μM FAD. Inhibitors were added at varying concentrations and incubated for 1 h at 25 °C.

Another assay addresses T1, human NOX1 (Homo sapiens, UniProt Q9Y5S8).
T1 construct: expressed in transfected cells; host or cells: HEK293 F cells, transient transfection (pEG BacMam vector); isolated membranes; Cytosolic proteins made in E. coli
T1 sequence (Q9Y5S8 1-564): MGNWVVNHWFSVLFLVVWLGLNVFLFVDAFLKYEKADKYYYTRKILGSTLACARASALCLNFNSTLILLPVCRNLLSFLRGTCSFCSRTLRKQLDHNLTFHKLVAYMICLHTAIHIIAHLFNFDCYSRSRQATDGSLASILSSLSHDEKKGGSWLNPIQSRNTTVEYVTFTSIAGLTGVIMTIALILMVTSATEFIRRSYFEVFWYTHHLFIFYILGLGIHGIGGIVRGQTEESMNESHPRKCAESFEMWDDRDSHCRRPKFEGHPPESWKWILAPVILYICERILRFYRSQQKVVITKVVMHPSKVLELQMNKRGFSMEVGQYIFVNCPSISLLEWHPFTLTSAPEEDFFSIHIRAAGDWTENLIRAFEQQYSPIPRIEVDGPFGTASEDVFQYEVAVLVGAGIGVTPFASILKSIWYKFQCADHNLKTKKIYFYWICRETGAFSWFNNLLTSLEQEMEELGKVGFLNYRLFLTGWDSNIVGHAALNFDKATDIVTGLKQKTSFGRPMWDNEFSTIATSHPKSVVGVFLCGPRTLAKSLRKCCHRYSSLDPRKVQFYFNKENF
T1 sequence (P13498 1-195 partner): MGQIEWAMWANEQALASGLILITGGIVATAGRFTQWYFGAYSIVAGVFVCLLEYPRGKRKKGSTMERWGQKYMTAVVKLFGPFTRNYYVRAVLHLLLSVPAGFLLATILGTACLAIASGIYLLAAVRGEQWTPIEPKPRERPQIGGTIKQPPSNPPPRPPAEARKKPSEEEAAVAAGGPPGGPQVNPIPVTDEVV
Kind of assay: Human NOX1 isolated membranes, Amplex Red/horseradish peroxidase coupled assay. Type of assay: biochemical. As to conditions: membrane-embedded; 40 μM NADPH; read-out: IC50 on human NOXs, NOX1 (AMPLEX RED). How it is done: (§1) Activity assays for IC50 determinations were performed as previously described[40],[42] with modifications for covalent inhibitors. […] The estimated final protein concentrations based on the heme’s absorbance (ε414 nm = 131,000 M^–1 cm^–1) were 10–20 nM. Compounds were incubated for 1 h at 25 °C at varying concentrations, and reactions were initiated with 40 μM NADPH. Fluorescence was measured using a ClarioStar plate reader (excitation 572 nm/emission 583 nm).

The next assay concerns the target T2, human NOX5 (Homo sapiens, UniProt Q96PH1).
T2 construct: expressed in transfected cells; host or cells: HEK293 F cells, transient transfection (pEG BacMam vector); isolated membranes
T2 sequence (Q96PH1 1-719 isoform Q96PH1-4): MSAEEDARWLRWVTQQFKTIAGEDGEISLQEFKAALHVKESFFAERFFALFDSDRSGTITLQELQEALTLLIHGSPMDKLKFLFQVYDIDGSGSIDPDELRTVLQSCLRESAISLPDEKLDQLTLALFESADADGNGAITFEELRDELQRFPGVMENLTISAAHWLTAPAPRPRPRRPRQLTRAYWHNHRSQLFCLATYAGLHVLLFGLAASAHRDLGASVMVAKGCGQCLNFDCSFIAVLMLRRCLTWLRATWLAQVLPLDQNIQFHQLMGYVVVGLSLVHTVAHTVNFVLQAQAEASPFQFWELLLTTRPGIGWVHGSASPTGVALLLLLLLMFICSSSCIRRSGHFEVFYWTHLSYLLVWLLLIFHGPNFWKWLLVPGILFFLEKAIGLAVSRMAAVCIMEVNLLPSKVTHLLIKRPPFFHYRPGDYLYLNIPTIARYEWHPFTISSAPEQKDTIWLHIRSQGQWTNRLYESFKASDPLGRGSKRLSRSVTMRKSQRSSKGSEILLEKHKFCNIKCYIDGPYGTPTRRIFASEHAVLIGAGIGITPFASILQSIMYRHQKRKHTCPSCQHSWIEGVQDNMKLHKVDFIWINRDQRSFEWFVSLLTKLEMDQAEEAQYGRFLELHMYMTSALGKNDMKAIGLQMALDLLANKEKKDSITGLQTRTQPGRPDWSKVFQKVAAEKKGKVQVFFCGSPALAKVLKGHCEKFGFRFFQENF
In words: Human NOX5 isolated membranes, Amplex Red/horseradish peroxidase coupled assay. Type of assay: biochemical. The note with it: membrane-embedded; 40 μM NADPH; read-out: IC50 on human NOXs, NOX5 (AMPLEX RED). How it is done: as §1

A further assay deals with T3, human NOX4 (Homo sapiens, UniProt Q9NPH5).
T3 construct: expressed in transfected cells; host or cells: HEK293 F cells, transient transfection (pTT22 and pYD7 vectors); isolated membranes
T3 sequence (Q9NPH5 1-578): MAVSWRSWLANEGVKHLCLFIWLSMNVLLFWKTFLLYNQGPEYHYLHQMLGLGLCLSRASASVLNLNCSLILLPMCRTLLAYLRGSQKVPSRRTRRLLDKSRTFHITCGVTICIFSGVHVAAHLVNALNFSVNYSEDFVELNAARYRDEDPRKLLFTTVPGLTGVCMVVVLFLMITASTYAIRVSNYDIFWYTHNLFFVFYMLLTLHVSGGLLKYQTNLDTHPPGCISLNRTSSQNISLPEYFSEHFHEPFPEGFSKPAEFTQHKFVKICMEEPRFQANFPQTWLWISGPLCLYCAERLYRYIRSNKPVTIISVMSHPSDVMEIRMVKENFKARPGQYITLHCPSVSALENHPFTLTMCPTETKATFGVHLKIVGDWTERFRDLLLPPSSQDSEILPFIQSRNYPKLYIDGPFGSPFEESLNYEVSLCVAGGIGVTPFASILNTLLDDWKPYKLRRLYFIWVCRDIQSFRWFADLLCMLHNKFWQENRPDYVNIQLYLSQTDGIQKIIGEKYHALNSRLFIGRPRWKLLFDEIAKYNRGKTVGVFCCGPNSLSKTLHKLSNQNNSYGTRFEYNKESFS
T3 sequence (P13498 1-195 partner): T1 sequence (P13498 1-195 partner)
In words: Human NOX4 isolated membranes, Amplex Red/horseradish peroxidase coupled assay. Type of assay: biochemical. As to conditions: membrane-embedded; 40 μM NADPH; read-out: IC50 on human NOXs, NOX4 (AMPLEX RED). As for the experimental part:
as §1

The next assay addresses NOX2 (Homo sapiens, UniProt P04839). Kind of assay: Human NOX2 isolated membranes, MCLA assay. In kind it is biochemical. Further details: NOX2 was expressed as native protein in X-CGD PLB-985 cells transduced with the RD114 pseudotyped MFGS-NOX2 vector; expressed in transfected cells; host or cells: X-CGD PLB-985 cells transduced with MFGS-NOX2; isolated membranes; Cytosolic proteins made in E. coli. The note with it: membrane-embedded; 240 μM NADPH; read-out: IC50 on human NOXs, NOX2 (MCLA). As for the experimental part: IC50 determinations were performed as described, with the same aforementioned modifications for covalent inhibition. Briefly, 20 μg of NOX2-p22^phox membranes was added to a reaction mix with a 65 mM sodium phosphate buffer (pH 7.0), 0.5 μM FAD, 130 μM LiDS, 160 nM p67^phox, p47^phox, Rac1 Q61L, and 1 μM MCLA or 200 μM bovine cytochrome c. The estimated final protein concentration based on the heme’s absorbance was 60 nM. Compounds were incubated for 1 h at 25 °C, at varying concentrations. The reaction started by adding 240 μM NADPH, and measurements were taken by using a GloMax plate reader (Promega; MCLA) or a Cary 100 UV–vis spectrophotometer (Varian; cytochrome c).

Usually IC50 stands for the point on the concentration scale where inhibition reaches its midpoint.

With `C=CC(=O)N1CCC(Nc2ncnc3c2nnn3Cc2ccccc2)CC1` [Compound 7c, 1-(4-((3-Benzyl-3H-[1,2,3]triazolo[4,5-d]pyrimidin-7-yl)amino)piperidin-1-yl)prop-2-en-1-one], the “covalent binding to csNOX5 dehydrogenase active-site cysteine” value in the assay with csNOX5 dehydrogenase is listed as “no covalent binding”. Also, in assay [1], the “% INHIBITION csNOX5 DEHYDROGENASE DOMAIN” value came to 41.2 ± 9.7%.
Turning to `FC1(F)CC2(CCN(Cc3ccc(Cn4nnc5c(Sc6nc7ccccc7o6)ncnc54)cc3)CC2)C1` [Compound 9f, 2-((3-(4-((2,2-Difluoro-7-azaspiro[3.5]nonan-7-yl)methyl)benzyl)-3H-[1,2,3]triazolo[4,5-d]pyrimidin-7-yl)thio)benzo[d]oxazole], the IC50 at human NOX1 was over 100 µM; on human NOX5, 46.6 ± 9.1 µM; at human NOX4 it was over 100 µM; on NOX2, 13.8 ± 2.8 µM.
In the case of `CCCN(C)Cc1ccc(Cn2nnc3c(Sc4nc5ccccc5o4)ncnc32)cc1` [Compound 9b, N-(4-((7-(Benzo[d]oxazol-2-ylthio)-3H-[1,2,3]triazolo[4,5-d]pyrimidin-3-yl)methyl)benzyl)-N-methylpropan-1-amine], the IC50 on human NOX1, at human NOX5, on human NOX4 and on NOX2 was over 100 µM throughout.
Turning to `c1ccc2oc(Sc3ncnc4c3nnn4Cc3ccc(CN4CCCCC4)cc3)nc2c1` [Compound 9d, 2-((3-(4-(Piperidin-1-ylmethyl)benzyl)-3H-[1,2,3]triazolo[4,5-d]pyrimidin-7-yl)thio)benzo[d]oxazole], the half-maximal inhibitory concentration (IC50) at human NOX1 was over 100 µM; at human NOX5, 4.72 ± 3.7 µM; on human NOX4, over 100 µM; at NOX2, 8.1 ± 0.2 µM.
For `CN(Cc1ccccc1)Cc1ccc(Cn2nnc3c(Sc4nc5ccccc5o4)ncnc32)cc1` [Compound 9c, N-(4-((7-(Benzo[d]oxazol-2-ylthio)-3H-[1,2,3]triazolo[4,5-d]pyrimidin-3-yl)methyl)benzyl)-N-methyl-1-phenylmethanamine], the IC50 was over 100 µM at human NOX1, 14.3 ± 5.9 µM at human NOX5, over 100 µM on human NOX4 and 12.9 ± 2.2 µM on NOX2.
For the molecule `c1ccc2oc(Sc3ncnc4c3nnn4Cc3ccc(CN4CCOCC4)cc3)nc2c1` [Compound 9e, 2-((3-(4-(Morpholinomethyl)benzyl)-3H-[1,2,3]triazolo[4,5-d]pyrimidin-7-yl)thio)benzo[d]oxazole], the IC50 is over 100 µM at human NOX1, 2.06 ± 0.96 µM at human NOX5, over 100 µM at human NOX4 and 1.9 ± 0.2 µM at NOX2.
